Measurements published in US10300069B2, “Carbon monoxide-releasing molecules for therapeutic applications and methods of making and using thereof” (Georgia State University Research Foundation, Inc., priority 2014, dated 2019).

Experiments:
[1] = Completion time of reaction of TPCPD with cyclooctynes at 50 mM; assay type: physicochemical; conditions: 50 mM concentration
[2] = tested on: RAW cells; assay: WST-1 cytotoxicity test on RAW cells; assay type: cell-based, mouse
Procedure: In order to assess the cytotoxic effect of the reactants, 1 and 6a, as well as product 31, on RAW cells, the cytotoxicity test WST-1 was performed to examine induction by TPCPD (1) and BCN (6a) over varying concentrations and periods of time (FIGS. 3A-3C).
Different concentrations of each molecule were assessed: from 0.78 to 100 μM for 1 and 31 and 7.8 to 1000 μM for 6a. Different time points were assessed (1 h, 4 h, 8 h and 24 h). Triton 0.1% was used as a positive control of cytotoxicity and the subsequent value was established as 100% of cytotoxicity.

[3] = MTT cytotoxicity test of mannose-modified reactants (FIG. 4)
Procedure: The cytotoxicity test, MTT assay, was performed to define the concentration using TPCPD-M (57, 1 mM) and BCN-M (61, 1 mM) (FIG. 4).

[4] = Intramolecular DARinv (CO release) in DMSO/PBS (7.4) at 37° C.; assay type: physicochemical
Excerpt: (§1) Then the reaction mixture was extracted with ethyl acetate, and the obtained organic layer was dried with anhydrous Na2SO4, filtered and concentrated.
Then the reaction mixture was extracted with ethyl acetate, and the obtained organic layer was dried with anhydrous Na2SO4.
as §1

[5] = tested on: TNF-α; assay: LPS-induced accumulation of TNF-α by ELISA in RAW 264.7 culture supernatant; assay type: cell-based, mouse; conditions: tested separately (control)
Procedure: RAW264.7 cell were seeded in 6-well plates and incubated overnight. Cells were then stimulated with LPS (10 mg/mL) for 1 h. TPCPD (1) and BCN (6a) (different concentrations) were added to well after 1 hr LPS treatment (same for all wells). As a control, the product (31) was used at same concentration as the anti-inflammation test to confirm that the suppression of TNF-α is result of CO instead of the reagent (or product) themselves (compounds 1, 6a, and 31). TNF-α secretion in the medium was measured with an eBioscience kit (mouse TNF-α ELISA kit, eBioscience, San Diego, Calif., USA).
TNF-α is a major pro-inflammatory cytokine, mainly secreted from macrophages and dendritic cells. Its production is induced in vitro by stimulation with LPS. The accumulation of TNF-α was assessed by ELISA in the culture supernatant of the macrophage cell line, RAW 264.7 (FIG. 5). The cells were stimulated for 1 h and then co-treated by […] for 24 h. […] A 50% decrease of the LPS-induced accumulation of TNF-α was observed after co-treatment with TPCPD-M and BCN-M at the respective concentration of 1 mM+1 mM.
As a control, the effect of the TPCPD-M and BCN-M were tested separately (FIG. 5).

[6] = Water solubility of mannose-modified reactants; assay type: physicochemical
[7] = 8 h, within the concentration range studied

OCC1[C@H]2CCC#CCC[C@@H]12 (stereo partly drawn) [BCN]
time in which the reaction with TPCPD finished [1]: ≤ 5 min
cytotoxicity [2, 7]: Neither 6a (FIG. 3B) and nor the product (FIG. 3C) displayed any sign of cytotoxicity
cytotoxicity ([2]; 24 h, 1 mM): 60%

NCC(=O)O.[C-]#[O+].[C-]#[O+].[C-]#[O+].[Cl][Ru] [CORM3, reference compound]
decrease in cell viability ([3]; 1 mM concentration): 30%

O=C1C(c2ccccc2)=C(c2ccccc2)C(c2ccccc2)=C1c1ccccc1 [TPCPD]
toxicity (cytotoxicity, Triton 0.1% = 100%) ([2]; 8 h, 50 μM): 44%
toxicity (cytotoxicity, Triton 0.1% = 100%) ([2]; 8 h, 100 μM): 49%
cytotoxicity ([2]; 24 h, concentrations higher than 12.5 μM): more than 50%

OC[C@@H]1[C@H]2CCc3c(c(-c4ccccc4)c(-c4ccccc4)c(-c4ccccc4)c3-c3ccccc3)CC[C@@H]12 [compound 31]
cytotoxicity [2, 7]: Neither 6a (FIG. 3B) and nor the product (FIG. 3C) displayed any sign of cytotoxicity
cytotoxicity ([2]; 24 h, within the concentration range tested): not cytotoxic

C#CCOc1ccccc1C1=C2C(=C(C(=O)N3CCOCC3)C1=O)c1cccc3cccc2c13 [compound 51]
incubation time after which the intramolecular DARinv reaction was finished [4]: 16 h

O=C(NCCOCCOCCOC1OC(CO)C(O)C(O)C1O)OCC1[C@H]2CCC#CCC[C@@H]12 (stereo partly drawn) [compound 61]
cytotoxicity (MTT) ([3]; 24 h of treatment, within 1 mM concentration): none of the compounds led to any cytotoxicity
inhibition of the LPS-induced accumulation of TNF-α [5]: do not lead to any inhibition
water solubility [6]: water soluble

C1#CCCCCCC1 [cyclooctyne]
time in which the reaction with TPCPD finished [1]: 15 min

fluorocyclooctyne [fluorocycolooctyne]
time after which the reaction with TPCPD had not reached completion [1]: > 24 h
